Assay results as given in patent publication US20220347175A1, “PYRIDAZINONE DERIVATIVE” (Sumitomo Dainippon Pharma Co., Ltd., priority 2018, published 2022).

Tests used:
human Nav1.1 = molecular target: T1, human Nav1.1 (Homo sapiens, UniProt P35498); assay: Amplification of Nav1.1-derived voltage-dependent sodium current (Nav1.1 current), cell line stably expressing human Nav1.1, automated patch clamp; type: cell-based
T1 construct: host or cells: HEK293
Outline: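 Amplification rate (%) is 100 × post-compound/pre-compound Nav1.1 peak current or AUC, minus 100. Ramp-evoked sodium currents were recorded by automated patch clamp in a human Nav1.1 HEK293 stable line, restricted to cells exceeding 500 pA, with compounds added in extracellular solution containing 1% DMSO.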

human Nav1.5 = molecular target: T2, human Nav1.5 (Homo sapiens, UniProt Q14524); assay: Amplification of Nav1.5-derived voltage-dependent sodium current (Nav1.5 current), cell line stably expressing human Nav1.5, automated patch clamp; type: cell-based
T2 construct: expressed in transfected cells; host or cells: CHO-K1 (T-REx System, ThermoFisher Scientific)
Method: Test 2: Evaluation of the Amplification in Nav1.5-Derived Voltage-Dependent Sodium Current (Nav1.5 Current) by Using a Cell Line Stably Expressing Human Nav1.5
A CHO-K1 cell line (Chinese hamster ovary) stably expressing human Nav1.5 (Gene Bank Accession No: P000326.2) was obtained by using purchased T-Rex System (ThermoFisher Scientific, USA), and used for the present test. The effect of test compounds on the amplification of Nav1.5 current was evaluated by using a cell line stably expressing human Nav1.5 and HTS automated patch clamp system, similarly in the method using Nav1.1. In other words, test compounds were added in an extracellular fluid which contained 1% DMSO and 500 nmol/L Tetrodotoxin (TTX), and evaluated as a change of the peak value of Nav1.5 current and the area under the curve (AUC). The induction and the measurement of Nav1.5 current, the pharmacologic effect on Nav1.5 current, and a method for pharmacological evaluation were carried out by the same method as in Nav1.1.

[1] = compound 3 μmol/L, HEK293 stably expressing human Nav1.1
[2] = compound 3 μmol/L, CHO-K1 stably expressing human Nav1.5
[3] = compound 1 μmol/L, HEK293 stably expressing human Nav1.1
[4] = compound 1 μmol/L, CHO-K1 stably expressing human Nav1.5

T2 sequence (Q14524 1-2015 isoform Q14524-2): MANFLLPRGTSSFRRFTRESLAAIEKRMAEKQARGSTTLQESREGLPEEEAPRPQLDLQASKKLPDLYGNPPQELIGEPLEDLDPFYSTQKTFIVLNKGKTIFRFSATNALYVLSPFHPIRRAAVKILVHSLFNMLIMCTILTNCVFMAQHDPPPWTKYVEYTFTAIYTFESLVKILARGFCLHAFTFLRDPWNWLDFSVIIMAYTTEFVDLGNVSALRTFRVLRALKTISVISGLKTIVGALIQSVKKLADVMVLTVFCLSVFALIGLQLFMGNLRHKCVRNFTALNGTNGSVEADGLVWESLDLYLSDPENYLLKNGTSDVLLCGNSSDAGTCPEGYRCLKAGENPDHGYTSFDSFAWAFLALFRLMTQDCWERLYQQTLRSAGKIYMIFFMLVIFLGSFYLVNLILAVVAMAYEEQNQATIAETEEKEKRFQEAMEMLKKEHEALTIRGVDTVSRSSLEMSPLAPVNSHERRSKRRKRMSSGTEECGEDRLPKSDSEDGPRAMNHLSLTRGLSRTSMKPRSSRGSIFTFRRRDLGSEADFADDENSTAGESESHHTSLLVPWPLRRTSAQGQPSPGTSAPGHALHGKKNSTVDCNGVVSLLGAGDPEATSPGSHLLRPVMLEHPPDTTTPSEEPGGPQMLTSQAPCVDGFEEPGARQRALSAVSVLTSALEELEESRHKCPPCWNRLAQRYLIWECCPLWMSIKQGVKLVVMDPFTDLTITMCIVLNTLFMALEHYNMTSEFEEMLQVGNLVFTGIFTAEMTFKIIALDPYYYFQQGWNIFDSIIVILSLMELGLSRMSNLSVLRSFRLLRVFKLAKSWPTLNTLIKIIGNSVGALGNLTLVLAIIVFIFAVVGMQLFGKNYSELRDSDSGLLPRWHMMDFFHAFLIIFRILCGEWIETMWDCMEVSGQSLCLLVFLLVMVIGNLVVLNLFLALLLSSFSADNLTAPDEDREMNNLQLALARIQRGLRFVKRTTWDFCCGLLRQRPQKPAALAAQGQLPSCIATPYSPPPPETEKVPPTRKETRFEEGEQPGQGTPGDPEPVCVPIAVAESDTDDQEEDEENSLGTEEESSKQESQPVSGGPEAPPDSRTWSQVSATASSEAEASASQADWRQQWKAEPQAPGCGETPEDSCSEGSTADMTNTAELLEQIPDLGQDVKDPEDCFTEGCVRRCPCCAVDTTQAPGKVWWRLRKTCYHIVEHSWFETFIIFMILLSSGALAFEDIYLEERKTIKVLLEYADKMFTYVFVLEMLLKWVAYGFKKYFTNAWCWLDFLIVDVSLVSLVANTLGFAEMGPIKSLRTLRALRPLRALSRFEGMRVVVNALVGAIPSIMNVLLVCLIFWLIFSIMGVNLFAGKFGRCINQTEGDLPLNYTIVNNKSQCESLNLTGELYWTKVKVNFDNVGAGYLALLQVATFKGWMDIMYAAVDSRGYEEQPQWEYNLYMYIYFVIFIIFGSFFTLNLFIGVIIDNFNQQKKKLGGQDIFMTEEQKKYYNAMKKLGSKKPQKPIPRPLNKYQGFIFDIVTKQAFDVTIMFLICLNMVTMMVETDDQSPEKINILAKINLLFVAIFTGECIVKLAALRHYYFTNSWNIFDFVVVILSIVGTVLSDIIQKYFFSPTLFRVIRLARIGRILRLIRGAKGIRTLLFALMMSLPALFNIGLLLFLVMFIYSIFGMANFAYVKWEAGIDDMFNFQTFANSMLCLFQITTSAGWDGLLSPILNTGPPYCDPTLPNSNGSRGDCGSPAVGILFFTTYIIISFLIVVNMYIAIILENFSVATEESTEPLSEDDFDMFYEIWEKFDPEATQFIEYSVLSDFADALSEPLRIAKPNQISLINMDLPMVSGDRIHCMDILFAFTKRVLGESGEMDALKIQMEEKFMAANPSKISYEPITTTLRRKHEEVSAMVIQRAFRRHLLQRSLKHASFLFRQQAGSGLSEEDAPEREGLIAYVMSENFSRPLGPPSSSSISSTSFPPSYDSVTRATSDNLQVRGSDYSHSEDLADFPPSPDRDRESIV

Row | SMILES | Nav1.1 current amplification rate (%) (human Nav1.1; [1]) | Nav1.5 current amplification rate (%) (human Nav1.5; [2]) | also measured
1 | CC1CC=C(c2ccc(=O)n(CC(=O)N3CCN(c4cncc(F)c4)CC3)n2)CC1 (racemic) [Example 263] | – | – | Nav1.1 current amplification rate (%) (human Nav1.1; 10 μmol/L compound, change of the area under the curve of Nav1.1 current (Test Result 1)): 342%; Nav1.5 current amplification rate (%) (human Nav1.5; 10 μmol/L compound, change of the area under the curve of Nav1.5 current (Test Result 1)): 32%
2 | Cc1ncc(-c2cccc3c2CCN3C(=O)Cn2nc(C3=CCC(C)CC3)ccc2=O)cn1 (racemic) [Example 264] | 597 | 65 | –
3 | CC1CC=C(c2ccc(=O)n(CC(=O)N3CCc4c(C5=CCNC5)cccc43)n2)CC1 (racemic) [Example 265] | 110 | 19 | –
4 | CC1CC=C(c2ccc(=O)n(CC(=O)N3CCc4c(CO)cccc43)n2)CC1 (racemic) [Example 266] | 108 | 128 | –
5 | CC1CC=C(c2ccc(=O)n(CC(=O)N3CCc4c(C5=CCN(C)C5)cccc43)n2)CC1 (racemic) [Example 267] | 231 | 79 | –
6 | CC1CC=C(c2ccc(=O)n(CC(=O)N3CCc4c(CN5CCOCC5)cccc43)n2)CC1 (racemic) [Example 270] | 481 | 78 | –
7 | CC1CC=C(c2ccc(=O)n(CC(=O)N3CCc4c(CN5CCCC5)cccc43)n2)CC1 (racemic) [Example 271] | 48 | 70 | –
8 | CC1CC=C(c2ccc(=O)n(CC(=O)N3CCc4c(CN(C)C5COC5)cccc43)n2)CC1 (racemic) [Example 276] | – | – | Nav1.1 current amplification rate (%) (human Nav1.1; [3]): 207%; Nav1.5 current amplification rate (%) (human Nav1.5; [4]): 47%
9 | CC1CC=C(c2ccc(=O)n(CC(=O)N3CCc4c3cccc4C(C)(C)O)n2)CC1 (racemic) [Example 277] | – | – | Nav1.1 current amplification rate (%) (human Nav1.1; [3]): 210%; Nav1.5 current amplification rate (%) (human Nav1.5; [4]): 18%
10 | CC1CC=C(c2ccc(=O)n(CC(=O)N3CCc4c(Cn5ccnc5)cccc43)n2)CC1 (racemic) [Example 286] | – | – | Nav1.1 current amplification rate (%) (human Nav1.1; [3]): 848%; Nav1.5 current amplification rate (%) (human Nav1.5; [4]): 579%
11 | CC1CC=C(c2ccc(=O)n(CC(=O)N3CCc4c(CN5CC=CC5)cccc43)n2)CC1 (racemic) [Example 287] | – | – | Nav1.1 current amplification rate (%) (human Nav1.1; [3]): 73%; Nav1.5 current amplification rate (%) (human Nav1.5; [4]): 123%
12 | CC1CC=C(c2ccc(=O)n(CC(=O)N3CCOc4c(-c5cn[nH]c5)cccc43)n2)CC1 (racemic) [Example 290] | 94 | 4.5 | –
13 | CC1CC=C(c2ccc(=O)n(CC(=O)N3CCc4c(Cn5cncn5)cccc43)n2)CC1 (racemic) [Example 294] | – | – | Nav1.1 current amplification rate (%) (human Nav1.1; [3]): 271%; Nav1.5 current amplification rate (%) (human Nav1.5; [4]): 427%
14 | CC1CC=C(c2ccc(=O)n(CC(=O)N3CCc4c(C5CNC5)cccc43)n2)CC1 (racemic) [Example 299] | 6 | 10 | –
15 | CC1CC=C(c2ccc(=O)n(CC(=O)N3CCc4c(C5CN(C)C5)cccc43)n2)CC1 (racemic) [Example 300] | 140 | 55 | –
16 | CC1CC=C(c2ccc(=O)n(CC(=O)N3CCc4c(C5CN(C6COC6)C5)cccc43)n2)CC1 (racemic) [Example 301] | 410 | 55 | –
17 | CCN1CC(c2cccc3c2CCN3C(=O)Cn2nc(C3=CCC(C)CC3)ccc2=O)C1 (racemic) [Example 302] | 104 | 79 | –
18 | CC1CC=C(c2ccc(=O)n(CC(=O)N3CCc4c(C5CN(CCO)C5)cccc43)n2)CC1 (racemic) [Example 303] | 67 | 11 | –
19 | CC1CC=C(c2ccc(=O)n(CC(=O)N3CCc4c(C5CN(C6CCOC6)C5)cccc43)n2)CC1 (racemic) [Example 305] | 314 | 117 | –
20 | CC1CC=C(c2ccc(=O)n(CC(=O)N3CCc4c(C5CN(C(=O)C(C)(C)O)C5)cccc43)n2)CC1 (racemic) [Example 306] | 532 | 327 | –
21 | CC1CC=C(c2ccc(=O)n(CC(=O)N3CCc4c(OCC(C)(C)O)cccc43)n2)CC1 (racemic) [Example 307] | 320 | 37 | –
22 | CC1CC=C(c2ccc(=O)n(CC(=O)N3CCc4c(-c5cn[nH]c5)cncc43)n2)CC1 (racemic) [Example 311] | – | – | Nav1.1 current amplification rate (%) (human Nav1.1; [3]): 265%; Nav1.5 current amplification rate (%) (human Nav1.5; [4]): 52%
23 | CC1CC=C(c2ccc(=O)n(CC(=O)N3CCc4c(CNC5COC5)cccc43)n2)CC1 (racemic) [Example 313] | – | – | Nav1.1 current amplification rate (%) (human Nav1.1; [3]): 84%; Nav1.5 current amplification rate (%) (human Nav1.5; [4]): 133%
24 | CC1CC=C(c2ccc(=O)n(CC(=O)N3CCc4c3ccnc4N3CCOCC3)n2)CC1 (racemic) [Example 319] | – | – | Nav1.1 current amplification rate (%) (human Nav1.1; [3]): 134%; Nav1.5 current amplification rate (%) (human Nav1.5; [4]): 30%
25 | CC1CC=C(c2ccc(=O)n(CC(=O)Nc3ccn4ncnc4c3)n2)CC1 (racemic) [Example 330] | – | – | Nav1.1 current amplification rate (%) (human Nav1.1; [3]): 191%; Nav1.5 current amplification rate (%) (human Nav1.5; [4]): 47%

Now from value to compound, other results behind:

Row | Nav1.1 current amplification rate (%) (human Nav1.1; [1]) | SMILES | Nav1.5 current amplification rate (%) (human Nav1.5; [2]) | also measured
26 | 77 | CC1CC=C(c2ccc(=O)n(CC(=O)N3CCc4cc(C5CN(C6COC6)C5)ccc43)n2)CC1 (racemic) [Example 318] | 128 | –
27 | 478 | CC1CC=C(c2ccc(=O)n(CC(=O)N3CCc4c(C5CN(C(=O)CO)C5)cccc43)n2)CC1 (racemic) [Example 321] | 330 | –
28 | 115 | CC1CC=C(c2ccc(=O)n(CC(=O)Nc3cccc(N4CCOCC4)c3F)n2)CC1 (racemic) [Example 322] | 18 | –
29 | 154 | Cc1cc(NC(=O)Cn2nc(C3=CCC(C)CC3)ccc2=O)cc2ncoc12 (racemic) [Example 323] | 11 | –
30 | 50 | CC1CC=C(c2ccc(=O)n(CC(=O)Nc3ccc4oc(CN(C)C)nc4c3)n2)CC1 (racemic) [Example 324] | 5 | –
31 | 233 | COCc1nc2cc(NC(=O)Cn3nc(C4=CCC(C)CC4)ccc3=O)ccc2o1 (racemic) [Example 325] | 10 | –
32 | 132 | Cc1nc2cc(NC(=O)Cn3nc(C4=CCC(C)CC4)ccc3=O)cnc2s1 (racemic) [Example 326] | 34 | –
33 | 124 | CC1CC=C(c2ccc(=O)n(CC(=O)Nc3ccc4oc(C(C)(C)O)nc4c3)n2)CC1 (racemic) [Example 327] | 9 | –
34 | 58 | CC1CC=C(c2ccc(=O)n(CC(=O)Nc3cc4nccn4cn3)n2)CC1 (racemic) [Example 328] | 21 | –
35 | 100 | Cc1nc2cc(NC(=O)Cn3nc(C4=CCC(C)CC4)ccc3=O)ccn2c1C (racemic) [Example 329] | 50 | –
36 | 64 | CC1CC=C(c2ccc(=O)n(CC(=O)Nc3ccc4oc(CN5CCOCC5)nc4c3)n2)CC1 (racemic) [Example 331] | 9 | –
